Source: paper PMC11219871, “Epigenetic-based differentiation therapy for Acute Myeloid Leukemia” (Nature Communications, 2024)
“And” between values parts separate entries of the source, which are not always exact repeats. Equal values may be shown once.

Tests used:
[1] = system: Rag2-/-γc-/- mice; experiment: Toxicity assay: hematological and liver parameters, liver histology; type: in vivo, mouse; conditions: for ALT (Counts (U/L)) / AST (Counts (U/L)) / Bilirubin (Counts (mg/dl)) / HDL (Counts (mmol/l)) / LCLC3 (Counts (mmol/l)) / UREA (Counts (mg/dl)) / Hematocrit (Counts (%)) / Hemoglobin (Counts (g/dl)) / PLT (Counts (K/O)) / RBC (Counts (K/O)) / WBC (Counts (K/O)): healthy Rag2-/-γc-/- mice, individual mice, 10 mg/kg; for ALT (Counts (U/L)) / AST (Counts (U/L)) / Bilirubin (Counts (mg/dl)) / HDL (Counts (mmol/l)) / LCLC3 (Counts (mmol/l)) / UREA (Counts (mg/dl)): 10 mg/kg i.p. daily for 3 weeks then 7-day washout; for Hematocrit (Counts (%)) / Hemoglobin (Counts (g/dl)) / PLT (Counts (K/O)) / RBC (Counts (K/O)) / WBC (Counts (K/O)): 10 mg/kg i.p. daily for 3 weeks
Protocol: After treating Rag2^−/−γc^−/− mice with i.p. […] Hematological and liver parameters were measured.
Hematological parameters, including white blood cells, red blood cells, platelet count, hemoglobin and hematocrit, were measured on a Hemavet Hematology Analyzer (Drew Scientific). Liver enzymes (albumin, alkaline phosphatase, aspartate transaminase, alanine transaminase), cholesterol, bilirubin, urea and bile acid levels were analyzed from mice serum using a C311 Cobas Analyzer (Roche Diagnostics).
Mice livers were fixed in paraformaldehyde at 4% for 6–8 h, washed twice with saline solution and stored in 70% ethanol. Samples were included in paraffin, and 3-µm serial sections were cut, deparaffinated, and stained with hematoxylin–eosin.

[2] = system: H3Ac and H3K27me3 levels in HL-60, ML-2, MV4-11 and MOLM-13 cell lines; experiment: Western blot of histone marks; type: cell-based, human; conditions: HL-60, 270 nM CM-444 or 300 nM CM-1758, 48 h
Protocol: Histone extraction was performed with a Histone extraction Kit (Abcam, Cambridge, UK) following the manufacturer’s instructions. The histone concentration in the extract was measured using the dye-binding assay of Bradford. A 10 µg amount of histone was separated on 15% sodium dodecyl sulfate-polyacrylamide gel electrophoresis and transferred to a nitrocellulose membrane. The membrane, after being blocked with Tropix I-block blocking reagent (Cat No AI300, Tropix) in PBS with 0.1% Tween 20 and 0.02 NaN3 was incubated with the primary antibody against Acetyl H3 (rabbit polyclonal antibody, Cat No 06-599, Millipore) diluted 1:50,000 o/n at 4 °C or against H3K27 me3 (mouse monoclonal antibody to histone H3 trimethyl K27, Cat No ab6002, Abcam) diluted 1:2000 in bovine serum albumin o/n at 4 °C and then with alkaline phosphatase-conjugated secondary antibodies. […] Total H3 was used as a loading control (diluted 1:50,000 o/n at 4 °C or for 1 h at room temperature) (Anti-Histone H3, CT, pan, rabbit polyclonal, Cat No 07-690, Millipore). Images have been cropped for presentation.

[3] = molecular target: T1, EZH2 (Y641H) (Homo sapiens, UniProt Q15910, Y641H); experiment: Epigenetic panel (BPS Bioscience); type: biochemical
T1 construct: purchased BPS Bioscience; Eurofins (HDAC4, 5, 7-11)
Description: (§1) The selectivity of CM-444 and CM-1758 against other epigenetic targets, including histone demethylase (JMJD2A, JMJD2B, JMJD2C, JMJD2D, JMJD2E, JMJD3, JMJD1A, LSD1, Jarid1A, Jarid1B, Jarid1C, FBXL10, FBXL11, JHDM1D, JMJD1B, PHF8, LSD2 and UTX); histone acetyltransferases (GCN5, P300); histone methyltransferases (G9a, GLP, MLL1, SET7/9, SUV39H1, SUV39H2, PRMT1, PRMT3, PRMT4, PRMT5, PRMT6, PRMT8, PRMT9, NSD1, NSD2, EZH1, EZH2, SETDB1, SETD2, SET8, SUV4-20H1, SMYD2, SMYD3, DOT1L, EZH2 (A677G), EZH2 (A677G), EZH2 (A738T), EZH2 (Y641S), EZH2 (P132S), EZH2 (Y641C), EZH2 (Y641F), EZH2 (Y641H), EZH2 (Y641N)); bromodomains (ATAD2B, ATAD2A, BRD1, BRD9, BPTF/FALZ, CeCR2, BRPF3, BRD3 (BD1 + BD2), BAZ2B, WDR9, TAF1 (BD2), TAF1L (BD2), TAF1L (BD1 + BD2), BRD2 (BD1), BRD2 (BD2), BRD2 (BD1 + BD2), BRD3 (BD1), BRD3 (BD2), BRD4 (BD1), BRD4 (BD2), BRD4 (BD1 + BD2), BRDT (BD1), BRDT (BD1 + BD2), CREBBP, SMARCA2A, SMARCA4/BRG1); DNA methyltranferases (DNMT1, DNMT3A/3L and DNMT3B/3L), and sirtuin histone deacetylases (SIRT1, SIRT2, SIRT3, SIRT5 and SIRT6), were determined by BPS Bioscience (http://www.bpsbioscience.com/index.ph). Binding experiments were performed in duplicate at a concentration of 10 μM.

[4] = molecular target: T2, PHF8 (Homo sapiens, UniProt Q9UPP1); experiment: Epigenetic panel (BPS Bioscience); type: biochemical
T2 construct: purchased BPS Bioscience; Eurofins (HDAC4, 5, 7-11)
T2 sequence (Q9UPP1 whole entry): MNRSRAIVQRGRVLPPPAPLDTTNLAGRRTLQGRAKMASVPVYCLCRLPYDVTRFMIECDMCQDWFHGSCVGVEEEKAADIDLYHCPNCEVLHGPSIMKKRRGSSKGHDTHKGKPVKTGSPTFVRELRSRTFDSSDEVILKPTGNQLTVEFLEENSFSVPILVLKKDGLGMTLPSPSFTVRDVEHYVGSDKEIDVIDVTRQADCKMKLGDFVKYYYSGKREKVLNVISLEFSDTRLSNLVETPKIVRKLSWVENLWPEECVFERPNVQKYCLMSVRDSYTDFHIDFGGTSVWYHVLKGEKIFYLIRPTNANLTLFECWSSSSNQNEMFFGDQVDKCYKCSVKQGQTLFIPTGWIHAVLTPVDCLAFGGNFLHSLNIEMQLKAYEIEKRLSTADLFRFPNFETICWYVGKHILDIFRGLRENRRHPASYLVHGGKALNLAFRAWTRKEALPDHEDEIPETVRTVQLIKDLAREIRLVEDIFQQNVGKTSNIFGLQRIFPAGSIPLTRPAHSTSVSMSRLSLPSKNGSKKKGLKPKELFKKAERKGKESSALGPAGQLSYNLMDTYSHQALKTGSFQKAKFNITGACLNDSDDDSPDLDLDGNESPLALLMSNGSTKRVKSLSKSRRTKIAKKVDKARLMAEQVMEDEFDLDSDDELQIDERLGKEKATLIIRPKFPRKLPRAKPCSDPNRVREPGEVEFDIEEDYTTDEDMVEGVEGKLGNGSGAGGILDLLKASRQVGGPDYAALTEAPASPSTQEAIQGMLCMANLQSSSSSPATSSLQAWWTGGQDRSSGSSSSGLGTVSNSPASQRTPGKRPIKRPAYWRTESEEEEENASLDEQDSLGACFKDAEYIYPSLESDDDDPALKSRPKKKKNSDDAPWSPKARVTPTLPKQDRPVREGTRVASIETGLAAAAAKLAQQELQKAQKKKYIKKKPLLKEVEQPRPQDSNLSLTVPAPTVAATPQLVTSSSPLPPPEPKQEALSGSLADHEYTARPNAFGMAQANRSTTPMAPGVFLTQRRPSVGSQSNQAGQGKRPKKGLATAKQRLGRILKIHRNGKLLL
Description: as §1

[5] = molecular target: T3, PRMT1 (Homo sapiens, UniProt Q99873); experiment: Epigenetic panel (BPS Bioscience); type: biochemical
T3 construct: purchased BPS Bioscience; Eurofins (HDAC4, 5, 7-11)
T3 sequence (Q99873 whole entry): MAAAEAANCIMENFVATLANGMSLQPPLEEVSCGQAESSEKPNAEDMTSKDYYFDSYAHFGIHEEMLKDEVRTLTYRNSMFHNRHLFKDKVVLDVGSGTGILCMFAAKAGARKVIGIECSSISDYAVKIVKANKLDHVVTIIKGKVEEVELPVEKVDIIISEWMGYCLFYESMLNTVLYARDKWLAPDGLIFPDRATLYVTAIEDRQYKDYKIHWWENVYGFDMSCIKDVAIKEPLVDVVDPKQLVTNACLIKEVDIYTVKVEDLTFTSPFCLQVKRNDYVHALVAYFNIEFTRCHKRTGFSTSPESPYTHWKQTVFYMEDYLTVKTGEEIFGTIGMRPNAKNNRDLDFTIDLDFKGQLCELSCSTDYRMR
Description: as §1

[6] = molecular target: T4, EZH2 (Y641N) (Homo sapiens, UniProt Q15910, Y641N); experiment: Epigenetic panel (BPS Bioscience); type: biochemical
T4 construct: purchased BPS Bioscience; Eurofins (HDAC4, 5, 7-11)
T4 sequence (Q15910 whole entry Y641N): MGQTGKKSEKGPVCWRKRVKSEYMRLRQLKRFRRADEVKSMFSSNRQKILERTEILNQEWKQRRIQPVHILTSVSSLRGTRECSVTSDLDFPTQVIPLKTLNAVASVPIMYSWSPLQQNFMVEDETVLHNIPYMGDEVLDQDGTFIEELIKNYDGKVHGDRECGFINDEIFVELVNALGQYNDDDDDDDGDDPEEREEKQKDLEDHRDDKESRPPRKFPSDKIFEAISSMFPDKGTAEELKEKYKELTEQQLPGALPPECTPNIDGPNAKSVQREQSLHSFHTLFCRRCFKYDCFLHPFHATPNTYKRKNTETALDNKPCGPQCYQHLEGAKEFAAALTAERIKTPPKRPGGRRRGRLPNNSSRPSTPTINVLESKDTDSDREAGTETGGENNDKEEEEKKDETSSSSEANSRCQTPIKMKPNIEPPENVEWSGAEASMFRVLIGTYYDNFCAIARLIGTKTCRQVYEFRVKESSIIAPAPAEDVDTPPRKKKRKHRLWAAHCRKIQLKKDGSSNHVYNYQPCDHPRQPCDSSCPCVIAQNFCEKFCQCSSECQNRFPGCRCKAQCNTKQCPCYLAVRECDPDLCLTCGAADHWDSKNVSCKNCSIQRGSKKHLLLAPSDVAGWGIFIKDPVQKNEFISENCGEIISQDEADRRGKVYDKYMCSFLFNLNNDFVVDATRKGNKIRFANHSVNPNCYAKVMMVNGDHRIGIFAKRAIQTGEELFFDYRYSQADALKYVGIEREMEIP
T4 sequence (O75530 whole entry partner): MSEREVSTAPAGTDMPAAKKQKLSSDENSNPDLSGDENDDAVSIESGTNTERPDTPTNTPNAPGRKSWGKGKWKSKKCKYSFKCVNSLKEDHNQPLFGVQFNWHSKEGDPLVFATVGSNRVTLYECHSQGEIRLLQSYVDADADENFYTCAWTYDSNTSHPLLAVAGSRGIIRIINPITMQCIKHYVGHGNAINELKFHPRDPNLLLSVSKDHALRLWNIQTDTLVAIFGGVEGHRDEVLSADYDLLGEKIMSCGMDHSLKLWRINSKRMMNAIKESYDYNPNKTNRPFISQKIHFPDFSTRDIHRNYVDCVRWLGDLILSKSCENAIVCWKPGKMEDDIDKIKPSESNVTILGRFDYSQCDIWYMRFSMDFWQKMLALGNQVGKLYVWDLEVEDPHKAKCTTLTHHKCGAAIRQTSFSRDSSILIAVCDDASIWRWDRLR
T4 sequence (Q15022 whole entry partner): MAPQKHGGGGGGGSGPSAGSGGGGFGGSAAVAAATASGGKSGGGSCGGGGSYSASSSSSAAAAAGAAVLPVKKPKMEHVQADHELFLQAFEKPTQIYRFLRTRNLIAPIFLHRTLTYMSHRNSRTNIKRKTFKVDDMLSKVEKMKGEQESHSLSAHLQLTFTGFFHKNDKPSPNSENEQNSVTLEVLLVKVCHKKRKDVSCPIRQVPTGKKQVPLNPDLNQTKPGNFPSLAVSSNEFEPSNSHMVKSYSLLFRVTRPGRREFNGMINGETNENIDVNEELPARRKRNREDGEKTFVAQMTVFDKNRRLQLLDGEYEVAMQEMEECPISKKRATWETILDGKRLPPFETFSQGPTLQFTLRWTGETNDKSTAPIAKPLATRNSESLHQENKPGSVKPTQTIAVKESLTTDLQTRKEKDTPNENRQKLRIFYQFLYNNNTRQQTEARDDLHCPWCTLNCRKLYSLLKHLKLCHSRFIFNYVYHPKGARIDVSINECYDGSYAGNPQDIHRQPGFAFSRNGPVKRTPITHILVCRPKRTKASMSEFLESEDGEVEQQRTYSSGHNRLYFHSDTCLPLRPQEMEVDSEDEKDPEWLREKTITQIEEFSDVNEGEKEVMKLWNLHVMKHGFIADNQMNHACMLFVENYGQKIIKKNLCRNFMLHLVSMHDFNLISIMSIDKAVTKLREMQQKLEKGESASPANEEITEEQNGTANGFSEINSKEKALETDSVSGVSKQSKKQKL
T4 sequence (Q09028 whole entry partner): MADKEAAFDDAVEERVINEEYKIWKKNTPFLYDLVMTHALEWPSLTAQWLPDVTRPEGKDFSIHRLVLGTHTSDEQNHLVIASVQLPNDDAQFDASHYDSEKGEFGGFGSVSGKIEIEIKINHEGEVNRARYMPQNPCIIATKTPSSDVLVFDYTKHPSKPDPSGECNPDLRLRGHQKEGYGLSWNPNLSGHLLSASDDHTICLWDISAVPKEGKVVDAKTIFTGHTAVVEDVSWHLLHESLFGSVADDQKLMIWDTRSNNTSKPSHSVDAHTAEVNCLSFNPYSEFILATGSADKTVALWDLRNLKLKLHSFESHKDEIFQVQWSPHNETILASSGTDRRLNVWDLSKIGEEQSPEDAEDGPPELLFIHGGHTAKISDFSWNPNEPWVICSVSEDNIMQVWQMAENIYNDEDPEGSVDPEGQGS
T4 sequence (Q6ZN18 whole entry partner): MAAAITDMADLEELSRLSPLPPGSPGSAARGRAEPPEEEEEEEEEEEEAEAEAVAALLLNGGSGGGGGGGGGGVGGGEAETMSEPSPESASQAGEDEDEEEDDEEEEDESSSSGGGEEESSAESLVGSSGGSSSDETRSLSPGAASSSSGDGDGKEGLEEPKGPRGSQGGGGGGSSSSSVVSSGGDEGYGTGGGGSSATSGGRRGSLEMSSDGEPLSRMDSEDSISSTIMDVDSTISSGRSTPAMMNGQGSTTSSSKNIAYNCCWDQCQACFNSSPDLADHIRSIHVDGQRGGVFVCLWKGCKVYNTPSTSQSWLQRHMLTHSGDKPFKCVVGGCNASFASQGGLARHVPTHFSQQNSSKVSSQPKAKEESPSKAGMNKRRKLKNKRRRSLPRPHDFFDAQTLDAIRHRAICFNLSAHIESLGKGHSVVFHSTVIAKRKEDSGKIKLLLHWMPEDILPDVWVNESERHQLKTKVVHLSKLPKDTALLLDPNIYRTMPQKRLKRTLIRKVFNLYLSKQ
Description: as §1

[7] = molecular target: T5, NSD1 (Homo sapiens, UniProt Q96L73); experiment: Epigenetic panel (BPS Bioscience); type: biochemical
T5 construct: purchased BPS Bioscience; Eurofins (HDAC4, 5, 7-11)
Description: as §1

[8] = molecular target: T6, EZH2 (P132S) (Homo sapiens, UniProt Q15910, P132S); experiment: Epigenetic panel (BPS Bioscience); type: biochemical
T6 construct: purchased BPS Bioscience; Eurofins (HDAC4, 5, 7-11)
T6 sequence (Q15910 whole entry P132S): as the sequence (Q15910 whole entry Y641N) above, with P132S, N641Y counted along it
T6 sequence (O75530 whole entry partner): as the sequence (O75530 whole entry partner) above
T6 sequence (Q15022 whole entry partner): as the sequence (Q15022 whole entry partner) above
T6 sequence (Q09028 whole entry partner): as the sequence (Q09028 whole entry partner) above
T6 sequence (Q6ZN18 whole entry partner): as the sequence (Q6ZN18 whole entry partner) above
Description: as §1

[9] = molecular target: T7, JMJD2B (Homo sapiens, UniProt O94953); experiment: Epigenetic panel (BPS Bioscience); type: biochemical
T7 construct: purchased BPS Bioscience; Eurofins (HDAC4, 5, 7-11)
Description: as §1

[10] = molecular target: T8, LSD1 (Homo sapiens, UniProt O60341); experiment: Epigenetic panel (BPS Bioscience); type: biochemical
T8 construct: purchased BPS Bioscience; Eurofins (HDAC4, 5, 7-11)
Description: as §1

[11] = molecular target: T9, PRMT8 (Homo sapiens, UniProt Q9NR22); experiment: Epigenetic panel (BPS Bioscience); type: biochemical
T9 construct: purchased BPS Bioscience; Eurofins (HDAC4, 5, 7-11)
T9 sequence (Q9NR22 whole entry): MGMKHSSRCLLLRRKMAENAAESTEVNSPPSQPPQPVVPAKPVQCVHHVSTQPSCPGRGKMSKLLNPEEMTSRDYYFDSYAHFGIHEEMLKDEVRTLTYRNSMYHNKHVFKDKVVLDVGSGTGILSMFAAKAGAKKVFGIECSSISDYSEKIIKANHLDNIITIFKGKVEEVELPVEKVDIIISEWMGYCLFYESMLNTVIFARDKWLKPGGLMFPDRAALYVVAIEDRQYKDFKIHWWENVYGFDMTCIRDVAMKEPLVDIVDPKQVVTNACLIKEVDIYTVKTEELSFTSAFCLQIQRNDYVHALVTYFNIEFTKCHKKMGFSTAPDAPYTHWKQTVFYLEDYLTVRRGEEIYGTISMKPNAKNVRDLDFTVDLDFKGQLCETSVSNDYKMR
Description: as §1

[12] = molecular target: T10, GLP (Homo sapiens, UniProt Q9H9B1); experiment: Epigenetic panel (BPS Bioscience); type: biochemical
T10 construct: purchased BPS Bioscience; Eurofins (HDAC4, 5, 7-11)
Description: as §1

## COc1cc2nc(-c3ccc(C)o3)cc(NCC3CCN(c4ncc(C(=O)NO)cn4)CC3)c2cc1OC [CM-444, 2-[4-[[[6,7-dimethoxy-2-(5-methyl-2-furyl)-4-quinolyl]amino]methyl]-1-piperidyl]pyrimidine-5-carbohydroxamic acid]
[1]; 10 mg/kg i.p. daily over 3 weeks, 1-week washout, Rag2-/-γc-/- mice
  tolerability: well tolerated
[1]; Week 3
  ALT (Counts (U/L)): 11.5 U/L and 2 U/L and 10.5 U/L
  AST (Counts (U/L)): 32 U/L and 193 U/L and 55.5 U/L and 92 U/L
  Bilirubin (Counts (mg/dl)): 0 mg/dl (2×) and 0.15 mg/dl and 0.05 mg/dl
  HDL (Counts (mmol/l)): 1.85 mmol/l (2×) and 0.7 mmol/l and 2.75 mmol/l
  LCLC3 (Counts (mmol/l)): 0.15 mmol/l and 0.25 mmol/l (2×) and 0.1 mmol/l
  UREA (Counts (mg/dl)): 11.5 mg/dL and 19.7 mg/dL and 22.3 mg/dL and 21.65 mg/dL
  Hematocrit (Counts (%)): 43.7% and 49.1% and 49.8% and 51%
  Hemoglobin (Counts (g/dl)): 11.4 g/dL and 17.4 g/dL and 17.9 g/dL and 18.3 g/dL
  PLT (Counts (K/O)): 730 K/O and 1171 K/O and 1358 K/O and 1362 K/O
  RBC (Counts (K/O)): 8.57 K/O and 10.02 K/O and 10.36 K/O and 10.9 K/O
  WBC (Counts (K/O)): 1.16 K/O and 8.64 K/O and 6.22 K/O and 6.1 K/O
[1]; Week 4
  ALT (Counts (U/L)): 19.5 U/L and 11.7 U/L and 32.4 U/L and 21 U/L
  AST (Counts (U/L)): 128.4 U/L and 47.1 U/L and 73.2 U/L and 160.2 U/L
  Bilirubin (Counts (mg/dl)): 0.09 mg/dl (2×) and 0.06 mg/dl and 0.12 mg/dl
  HDL (Counts (mmol/l)): 2.61 mmol/l (2×) and 2.16 mmol/l and 2.58 mmol/l
  LCLC3 (Counts (mmol/l)): 0.3 mmol/l and 0.21 mmol/l (2×) and 0.24 mmol/l
  UREA (Counts (mg/dl)): 27.78 mg/dL and 27.48 mg/dL and 30.3 mg/dL and 24.12 mg/dL
[1]; 7d Washout
  Hematocrit (Counts (%)): 52.1% and 56.9% and 53.3% and 53.1%
  Hemoglobin (Counts (g/dl)): 17.9 g/dL and 18 g/dL and 17.7 g/dL and 17.4 g/dL
  PLT (Counts (K/O)): 1470 K/O and 1489 K/O and 1608 K/O and 1482 K/O
  RBC (Counts (K/O)): 10.26 K/O and 10.79 K/O and 10.39 K/O and 10.19 K/O
  WBC (Counts (K/O)): 5.36 K/O and 7.2 K/O and 1.48 K/O and 3.02 K/O
[1]; Week 1
  Hematocrit (Counts (%)): 47.7% and 44.8% and 42.1% and 46%
  Hemoglobin (Counts (g/dl)): 18 g/dL and 18.2 g/dL and 17.7 g/dL and 17.8 g/dL
  PLT (Counts (K/O)): 906 K/O and 830 K/O and 622 K/O and 877 K/O
  RBC (Counts (K/O)): 10.04 K/O and 9.45 K/O and 9.05 K/O and 9.73 K/O
  WBC (Counts (K/O)): 3.7 K/O and 3.24 K/O and 5.4 K/O and 2.32 K/O
[1]; Week 2
  Hematocrit (Counts (%)): 50.2% and 53.9% and 53.4% and 41.4%
  Hemoglobin (Counts (g/dl)): 17.9 g/dL and 18.4 g/dL and 17.5 g/dL and 15.1 g/dL
  PLT (Counts (K/O)): 1887 K/O and 1805 K/O and 1778 K/O and 1467 K/O
  RBC (Counts (K/O)): 10.43 K/O and 10.72 K/O and 10.28 K/O and 8.62 K/O
  WBC (Counts (K/O)): 5.84 K/O and 4.8 K/O and 3.6 K/O and 7.26 K/O
[2]
  H3Ac level (western blot): significant increase in H3Ac
  H3K27me3 level (western blot): no changes in H3K27me3
[3]
  inhibition at 10 µM: 0%
[4]
  inhibition at 10 µM: 6%
[5]
  inhibition at 10 µM: 0%
[6]
  inhibition at 10 µM: 2%
[7]
  inhibition at 10 µM: 14%
[8]
  inhibition at 10 µM: 0%
[9]
  inhibition at 10 µM: 1%
[10]
  inhibition at 10 µM: 16%
[11]
  inhibition at 10 µM: 0%
[12]
  inhibition at 10 µM: 0%
